In patent publication US9210928B2, “Plant development control composition” (Syngenta Crop Protection, LLC, priority 2008, dated 2015):

Tested on: excised Arabidopsis nodes
Test: Axillary bud outgrowth assay in Arabidopsis stem sections
Format: in vivo
Conditions: 100 μM inhibitor, 1 μM NAA; Col-0; FIG. 5
Experimental: Axillary bud outgrowth assay in Arabidopsis stein sections—The assays were performed essentially as described (40) with the following modifications. Small Petri dishes (50 mm diameter, 20 mm depth) were filled with 10 ml of ATS (39) supplemented with 1% agar and 1% sucrose. Inhibitors and α-naphthalene acetic acid (NAA) were added to the agar before pouring to give 100 μM and 1 μM, respectively. Thus, when the central strip was cut out of the agar, both the apical and basal media contained both NAA and inhibitor. Any nodes in which the apical end had curled out of the media or which bud length was less than 2 mm at the end of the experiment were discounted. Measurement of the shoot length was performed every 24 hours. For each assay a logistic curve was fitted using Genstat (10th edition, VSN international) with the fitcurve directive and the lag phase was calculated by extrapolating the linear part of the curve and the initial plateau (see supplementary methods). The x value of where these two lines intersected represented the lag phase.
A logistic curve, y=A+C/(1+e^−B(t−m)), was fitted to the data for each shoot using GenStat (10th edition). The lag phase was then calculated using the equation m−(2/B) which effectively gave the t value (time) of the intercept of the two extrapolated lines from the linear part of the curve and the initial plateau.
Stimulation of shoot branching in Arabidopsis stem sections by application of inhibitor—Auxin inhibits the outgrowth of axillary buds in wild-type Arabidopsis plants. In the AtCCD7 and AtCCD8 null mutants (max3 and max4, respectively) the response to auxin is reduced, presumably due to a block in formation of an apocarotenoid hormone (recently shown (17,18) to be strigolactone or a related compound) that suppresses branching (19), and axillary buds extend earlier, leading to formation of side branches. An in vitro assay was previously developed in which the growth of axillary buds from isolated sections of Arabidopsis stem was used to assess max mutants (40). […]

| SMILES | effect on timing of bud outgrowth (in words) |
| --- | --- |
| COc1ccc(C(=O)N(O)Cc2ccc(F)cc2)cc1 [Compound F2, N-(4-fluorobenzyl)-4-methoxybenzoyl hydroxamic acid] | relatively small activity |
| COc1ccc(C(=O)N(O)Cc2ccccc2)cc1 [Compound F1, N-benzyl-4-methoxybenzoyl hydroxamic acid] | relatively small activity |
